Biological target: phosphorylated PDK1 (Homo sapiens (Human), UniProt O15530)
Assay: PDK1 kinase assay (coupled PDK1/AKT/FAM-crosstide, IMAP)
Type: biochemical
Conditions: 0.5 nM phosphorylated PDK1, 24 μM ATP; read-out: Inhibition of phospo-PDK1 in vitro IC50

phosphorylated PDK1, sequence (O15530 51-360): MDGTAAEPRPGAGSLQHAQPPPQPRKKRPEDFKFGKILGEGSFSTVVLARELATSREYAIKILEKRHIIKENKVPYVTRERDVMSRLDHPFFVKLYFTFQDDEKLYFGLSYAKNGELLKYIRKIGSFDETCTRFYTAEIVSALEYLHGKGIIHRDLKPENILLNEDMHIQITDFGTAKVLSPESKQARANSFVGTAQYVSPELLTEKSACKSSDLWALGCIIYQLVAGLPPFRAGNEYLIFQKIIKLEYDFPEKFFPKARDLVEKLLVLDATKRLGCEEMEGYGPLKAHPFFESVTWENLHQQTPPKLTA

Row | Compound | IC50
1 | O=C(NCC1CCC(c2c[nH]c3ncccc23)CC1)c1cccn(Cc2ccc(F)c(F)c2)c1=O (stereo not drawn) [Cpd 223] | > 10000 nM
2 | NS(=O)(=O)c1ccc(-c2cccc(CNC(=O)c3cccn(Cc4ccc(F)c(F)c4)c3=O)c2)cc1 [Cpd 228] | > 10000 nM
3 | O=C(Nc1cccc(C(=O)c2c[nH]c3ncccc23)c1)c1cccn(Cc2ccc(F)c(F)c2)c1=O [Cpd 127] | < 500 nM
4 | O=C(NCCCCc1c[nH]c2ncccc12)c1cc(Cl)cn(Cc2ccc(Cl)cc2)c1=O [Cpd 268] | < 500 nM
5 | O=C(NCC12CC3CC(C1)CC(c1c[nH]c4ncccc14)(C3)C2)c1cccn(Cc2ccc(F)c(F)c2)c1=O [Cpd 327] | 500 to 10000 nM
6 | Cn1ccnc1/C=C1/C(=O)Nc2cc(/C=C/CNC(=O)c3cccn(Cc4cc(F)c(F)c(F)c4)c3=O)ccc21 [Cpd 210] | < 500 nM
7 | O=C(Nc1cccc(C(=O)c2c[nH]c3ccccc23)c1)c1cccn(Cc2ccc(F)c(F)c2)c1=O [Cpd 221] | > 10000 nM
8 | O=C1Cc2ccc(OCCNC(=O)c3cccn(Cc4cc(F)c(F)c(F)c4)c3=O)cc2N1 [Cpd 207] | < 500 nM
9 | O=C(NCc1cccc(-c2c[nH]c3ncc(CO)cc23)c1)c1cccn(Cc2ccc(F)c(F)c2)c1=O [Cpd 8] | < 500 nM
10 | O=C(NCCCCCCc1c[nH]c2ncccc12)c1cccn(Cc2ccc(F)c(F)c2)c1=O [Cpd 338] | < 500 nM
11 | O=C(NCCCCc1c[nH]c2ncccc12)c1cccn(Cc2ccc(Cl)c(Cl)c2)c1=O [Cpd 269] | < 500 nM
12 | O=C(NCCCc1ccc2[nH]c(=O)[nH]c2c1)c1cccn(Cc2ccc(F)c(F)c2)c1=O [Cpd 161] | < 500 nM
13 | O=C(N[C@@H](COc1ccc2[nH]c(=O)[nH]c2c1)C(=O)O)c1cccn(Cc2cc(F)c(F)c(F)c2)c1=O [Cpd 154] | < 500 nM
14 | Nc1ncc(-c2cccc(CNC(=O)c3cccn(Cc4ccc(F)c(F)c4)c3=O)c2)cn1 [Cpd 215] | > 10000 nM
15 | O=C(NCc1cc(-c2c[nH]c3ncccc23)ncn1)c1cccn(Cc2ccc(F)c(F)c2)c1=O [Cpd 149] | < 500 nM
16 | O=C(O)c1cnc2[nH]cc(-c3cccc(CNC(=O)c4cccn(-c5cccc(F)c5F)c4=O)c3)c2c1 [Cpd 238] | < 500 nM
17 | O=C(NCc1cccc(-c2c[nH]c3ncc(-c4nnn[nH]4)cc23)c1)c1cccn(Cc2ccc(F)c(F)c2)c1=O [Cpd 246] | < 500 nM
18 | O=C(N[C@@H](COc1cc2[nH]c(=O)[nH]c2cn1)c1ccccc1)c1cccn(Cc2cc(F)c(F)c(F)c2)c1=O [Cpd 176] | < 500 nM
19 | NS(=O)(=O)c1cccc(-c2cccc(CNC(=O)c3cccn(Cc4ccc(F)c(F)c4)c3=O)c2)c1 [Cpd 227] | > 10000 nM
20 | O=C(c1cccn(Cc2ccc(F)c(F)c2)c1=O)N1CCN(C(=O)c2c[nH]c3ncccc23)CC1 [Cpd 233] | > 10000 nM
21 | NS(=O)(=O)c1ccccc1-c1cccc(CNC(=O)c2cccn(Cc3ccc(F)c(F)c3)c2=O)c1 [Cpd 226] | > 10000 nM
22 | COc1ccnc(NCCCCCNC(=O)c2cccn(Cc3ccc(Cl)c(Cl)c3)c2=O)n1 [Cpd 251] | 500 to 10000 nM
23 | O=C(N[C@H]1CC[C@H](c2c[nH]c3ncccc32)CC1)c1cccn(Cc2ccc(F)c(F)c2)c1=O [Cpd 337] | > 10000 nM
24 | COc1ccnc(NCCC#CCCNC(=O)c2cccn(Cc3cccc(Cl)c3)c2=O)n1 [Cpd 250] | 500 to 10000 nM
25 | O=C(O)COc1cc(CNC(=O)c2cccn(Cc3ccc(F)c(F)c3)c2=O)cc(-c2c[nH]c3ncccc23)c1 [Cpd 61] | < 500 nM
26 | O=C(Nc1cccc(C(=O)n2ccc3ncccc32)c1)c1cccn(Cc2ccc(F)c(F)c2)c1=O [Cpd 229] | > 10000 nM

Tested on: phospho-akt (Thr308)
Assay: phospho-akt (Thr308) MSD ELISA in PC-3 cells
Type: cell-based
Conditions: Homo sapiens, PC-3, 2 h, PC-3 cells, 2 hours, no serum; read-out: Inhibition of P308 Akt in cells using MSD EC50
Method: PC-3 cells were harvested by trypsin and counted. Cells were plated in coated 96-well flat bottom plates (plate 15,000 cells/well in 100 ul growth media (10% FBS, 1× pen-strep) an place in an incubator overnight.
Subject inhibitors were stocked at 50 mM, then diluted to 30 mM (4.8 μl cpd plus […] DMSO) in 100% DMSO. Three-fold dilutions were performed from 30 mM stock. (4 μl into 8 ul 100% DMSO). Aliquots of 1.0 μl of inhibitor solution were transferred into SF Medium (using deep well block).
Control wells were prepared as follows. For DMSO high controls, 1.0 μl of 100% DMSO was added into 1.0 ml SF.
MSD plates were blocked for 1 hour by adding 150 μl of Blocking Solution (3% BSA) to each well. The MSD plates were washed 4× with TBST, and 50 μl lysates were transferred to MSD plate and place on plate shaker shake at 4 degrees O/N, light shaking (speed 3.5). The plate was washed 4× with TBST.
25 μl of Ab detection solution was added to each well. The plate was sealed and incubated 1 hr RT, light shaking (speed 3.5). The plate was washed 4 times with TBST. 150 μl of Read Buffer was added (5 mls 4×MSD Read Buffer+15 mls water). Finally the plate was read immediately on the MSD plate reader.

Row | Compound | EC50
27 | C[C@H](COc1ccc2[nH]c(=O)[nH]c2c1)NC(=O)c1cccn(Cc2cc(F)c(F)c(F)c2)c1=O [Cpd 173] | 1 to 5 µM
28 | O=C(NCc1noc(-c2c[nH]c3ncccc23)n1)c1cccn(Cc2cc(F)c(F)c(F)c2)c1=O [Cpd 138] | 1 to 5 µM
29 | O=C(NCc1cc(OC2CCNCC2)cc(-c2c[nH]c3ncccc23)c1)c1cccn(Cc2ccc(F)c(F)c2)c1=O [Cpd 67] | < 1 µM
30 | CC(C)Oc1cc(CNC(=O)c2cccn(Cc3cc(F)c(F)c(F)c3)c2=O)cc(-c2c[nH]c3ncccc23)c1 [Cpd 65] | < 1 µM
31 | O=C(NCc1cccc(-c2c[nH]c3ncc(C(=O)N4CCOCC4)cc23)c1)c1cccn(Cc2ccc(F)c(F)c2)c1=O [Cpd 69] | < 1 µM
32 | O=C(NCc1cc(OC2CCCCC2)cc(-c2c[nH]c3ncccc23)c1)c1cccn(Cc2ccc(F)c(F)c2)c1=O [Cpd 84] | > 5 µM
33 | O=C(NCCOc1ccc2[nH]c(=O)[nH]c2c1F)c1cccn(Cc2ccc(F)c(F)c2)c1=O [Cpd 169] | 1 to 5 µM
34 | Nc1ncnc2ccc(-c3ccc(CNC(=O)c4cccn(Cc5ccc(F)c(F)c5)c4=O)s3)cc12 [Cpd 70] | < 1 µM
35 | O=C(NCc1ccc(O)c(-c2c[nH]c3ncccc23)c1)c1cccn(Cc2ccc(F)c(F)c2)c1=O [Cpd 82] | 1 to 5 µM
36 | O=C(O)c1cc(-c2c[nH]c3ncccc23)cc(CNC(=O)c2cccn(Cc3ccc(F)c(F)c3)c2=O)n1 [Cpd 172] | > 5 µM
37 | O=C(NCc1cc(OC2CCCC2)cc(-c2c[nH]c3ncccc23)c1)c1cccn(Cc2ccc(F)c(F)c2)c1=O [Cpd 85] | 1 to 5 µM
38 | O=C(NCc1cc(OCC(O)CO)cc(-c2c[nH]c3ncccc23)c1)c1cccn(Cc2ccc(F)c(F)c2)c1=O (stereo not drawn) [Cpd 68] | 1 to 5 µM
39 | C=C[C@H](COc1ccc2[nH]c(=O)[nH]c2c1)NC(=O)c1cccn(Cc2cc(F)c(F)c(F)c2)c1=O [Cpd 159] | 1 to 5 µM
40 | O=C(NCc1cccc(-c2c[nH]c(C(=O)N3CCOCC3)c2)c1)c1cccn(Cc2ccc(F)c(F)c2)c1=O [Cpd 76] | 1 to 5 µM
41 | NC(=O)COc1cc(CNC(=O)c2cccn(Cc3ccc(F)c(F)c3)c2=O)cc(-c2c[nH]c3ncccc23)c1 [Cpd 62] | < 1 µM
42 | CCn1nc(NC(=O)c2cccn(Cc3ccc(F)c(F)c3)c2=O)c2cc(-c3c[nH]c4ncccc34)ccc21 [Cpd 95] | 1 to 5 µM
43 | O=C(NCc1cccc(-c2c[nH]c3nccc(F)c23)c1)c1cccn(Cc2ccc(F)c(F)c2)c1=O [Cpd 74] | 1 to 5 µM
44 | CC(c1ccc(C(F)(F)F)cc1)n1cccc(C(=O)NCc2noc(-c3c[nH]c4ncccc34)n2)c1=O (stereo not drawn) [Cpd 140] | 1 to 5 µM
45 | Cn1nc(NC(=O)c2cccn(Cc3ccc(F)c(F)c3)c2=O)c2cc(-c3c[nH]c4ncccc34)ccc21 [Cpd 87] | < 1 µM
46 | O=C(NCc1cccc(-c2c[nH]c3ncccc23)c1)c1cccn(Cc2ccc(C(F)(F)F)cc2)c1=O [Cpd 145] | > 5 µM
47 | O=C(N[C@@H](COc1ccc2[nH]c(=O)[nH]c2c1)c1ccccc1Cl)c1cccn(Cc2cc(F)c(F)c(F)c2)c1=O [Cpd 151] | < 1 µM
48 | O=C(NC/C=C/c1ccc2[nH]c(=O)[nH]c2c1)c1cccn(Cc2cc(F)c(F)c(F)c2)c1=O [Cpd 170] | 1 to 5 µM
49 | Nc1ncnc2ccc(-c3cccc(CNC(=O)c4cccn(Cc5ccc(F)c(F)c5)c4=O)c3)cc12 [Cpd 64] | > 5 µM
50 | O=C(NCc1coc(-c2c[nH]c3ncccc23)n1)c1cccn(Cc2ccc(F)c(F)c2)c1=O [Cpd 131] | 1 to 5 µM
51 | O=C(N[C@@H](COc1ccc2[nH]c(=O)[nH]c2c1)C1CC1)c1cccn(Cc2cc(F)c(F)c(F)c2)c1=O [Cpd 168] | 1 to 5 µM
52 | CC(C)(C)OC(=O)N1CCC(Oc2cc(CNC(=O)c3cccn(Cc4ccc(F)c(F)c4)c3=O)cc(-c3c[nH]c4ncccc34)c2)CC1 [Cpd 88] | > 5 µM
53 | CS(=O)(=O)N1CCC(Oc2cc(CNC(=O)c3cccn(Cc4ccc(F)c(F)c4)c3=O)cc(-c3c[nH]c4ncccc34)c2)CC1 [Cpd 94] | < 1 µM
54 | O=C(NCc1ccc(OCCN2CCOCC2)c(-c2c[nH]c3ncccc23)c1)c1cccn(Cc2ccc(F)c(F)c2)c1=O | 1 to 5 µM
55 | O=C(Nc1ccnc2ccc(-c3c[nH]c4ncccc34)cc12)c1cccn(Cc2ccc(F)c(F)c2)c1=O [Cpd 66] | < 1 µM
56 | CN(C)C(=O)COc1cc(CNC(=O)c2cccn(Cc3ccc(F)c(F)c3)c2=O)cc(-c2c[nH]c3ncccc23)c1 [Cpd 63] | < 1 µM

Same assay, conditions: Homo sapiens, PC-3, 2 h, PC-3 cells, 2 hours, no serum; read-out: Reduction of Cellular Levels of Akt p308 By MSD ELISA (EC50 μM)

Row | Compound | EC50
57 | O=C(NCc1noc(-c2c[nH]c3ncccc23)n1)c1cccn(Cc2cc(F)c(F)c(F)c2)c1=O [Cpd 138] | 1 to 5 µM
58 | CC(c1ccc(C(F)(F)F)cc1)n1cccc(C(=O)NCc2noc(-c3c[nH]c4ncccc34)n2)c1=O (stereo not drawn) [Cpd 140] | 1 to 5 µM
59 | O=C(NCc1cccc(-c2c[nH]c3ncccc23)c1)c1cccn(Cc2ccc(C(F)(F)F)cc2)c1=O [Cpd 145] | 1 to 5 µM
60 | O=C(NCc1coc(-c2c[nH]c3ncccc23)n1)c1cccn(Cc2ccc(F)c(F)c2)c1=O [Cpd 131] | 1 to 5 µM
61 | O=C(NCc1cccc(-c2c[nH]c3ncc(-c4nnn[nH]4)cc23)c1)c1cccn(Cc2ccc(F)c(F)c2)c1=O [Cpd 43] | > 5 µM
62 | O=C(Nc1n[nH]c2ccc(-c3c[nH]c4ncccc34)cc12)c1cccn(Cc2ccc(F)c(F)c2)c1=O [Cpd 42] | 1 to 5 µM

Same assay, conditions: Homo sapiens, PC-3, 2 h, read-out: Inhibition of P308 Akt in cells using MSD EC50

Row | Compound | EC50
63 | O=C(NC(COc1ccc2[nH]c(=O)[nH]c2c1)c1cccnc1)c1cccn(Cc2cc(F)c(F)c(F)c2)c1=O (stereo not drawn) [Cpd 163] | 1 to 5 µM
64 | CN1CCC(Oc2cc(CNC(=O)c3cccn(Cc4ccc(F)c(F)c4)c3=O)cc(-c3c[nH]c4ncccc34)c2)CC1 [Cpd 86] | 1 to 5 µM

Same assay, conditions: Homo sapiens; PC-3 cells, at 1 μM; read-out: Percent Inhibition of phospho-Akt (308) By MSD ELISA

Row | Compound | inhibition at 1 µM
65 | O=C(NCc1noc(-c2c[nH]c3ncccc23)n1)c1cccn(Cc2ccc(F)c(F)c2)c1=O [Cpd 129] | < 25%

Same assay, conditions: Homo sapiens; PC-3 cells, at 10 μM; read-out: Percent Inhibition of phospho-Akt (308) By MSD ELISA

Row | Compound | inhibition at 10 µM
66 | O=C(NCc1noc(-c2c[nH]c3ncccc23)n1)c1cccn(Cc2ccc(F)c(F)c2)c1=O [Cpd 129] | < 25%

Reference: patent US9873693B2 (Sunesis Pharmaceuticals, Inc., priority 2006, dated 2018)
